Data as given in article PMC10643130, “Molecular basis for selective uptake and elimination of organic anions in the kidney by OAT1” (Nature Structural & Molecular Biology, 2023).
Values joined by “and” are separate entries in the source; they are usually repeats but may differ in a detail not shown here. Equal values may be shown once. Blank lines part the entries; values can stand above or below the molecule they belong to.

Legend:
[1] = molecular target: T1, wild-type human OAT1 (HsOAT1) (Homo sapiens, UniProt Q4U2R8); experiment: Cell-based 6-CF transport assay, wild-type HsOAT1 in HeLa cells; details: for effect on OAT1 transport: 10 mM sodium phosphate
T1 sequence (Q4U2R8 1-563): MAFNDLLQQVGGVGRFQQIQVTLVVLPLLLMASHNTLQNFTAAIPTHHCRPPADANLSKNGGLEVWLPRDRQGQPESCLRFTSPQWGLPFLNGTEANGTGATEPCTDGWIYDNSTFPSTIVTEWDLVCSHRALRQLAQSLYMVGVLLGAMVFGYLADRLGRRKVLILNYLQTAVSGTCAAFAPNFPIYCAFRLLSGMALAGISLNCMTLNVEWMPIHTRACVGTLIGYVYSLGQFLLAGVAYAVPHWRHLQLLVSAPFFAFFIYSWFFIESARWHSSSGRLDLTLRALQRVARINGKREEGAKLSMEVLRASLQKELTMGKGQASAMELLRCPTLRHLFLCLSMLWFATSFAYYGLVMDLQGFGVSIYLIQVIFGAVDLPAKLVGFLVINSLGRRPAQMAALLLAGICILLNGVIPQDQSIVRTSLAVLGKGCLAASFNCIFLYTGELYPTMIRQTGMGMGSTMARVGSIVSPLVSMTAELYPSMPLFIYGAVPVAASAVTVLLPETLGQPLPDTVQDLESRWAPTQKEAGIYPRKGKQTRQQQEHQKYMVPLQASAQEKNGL
Description: To assay HsOAT1 transporter activity the model substrate 6-carboxyfluorescein (6-CF)[46],[47]
For transport assays, 1 × 10^5 cells per well were seeded into 24-well plates and 24 h later transfected using FUGENE HD (Promega E2311) Transfection Reagent (0.4 μg DNA per 1 μl of FUGENE per well) with HsOAT1 constructs containing a C-terminal FLAG tag in the vector pCDNA3.1 for 36 h. Expression of each mutant of HsOAT1 was assessed through western blotting on membrane fractions using an anti-FLAG antibody 1:3,000 dilution (Merck F1804), using a loading control of anti-β-actin 1:5,000 dilution (Merck A2228) (Extended Data Fig. 4). […] Background fluorescence was subtracted from cells transfected with the empty plasmid, and the data were normalized to 100%. To assess the activity of HsOAT1 in the presence and absence of chloride, the buffer was 120 mM NaCl, 28 mM glucose and 25 mM HEPES, pH 7.2 or for chloride-free conditions, and 120 mM sodium gluconate was used. […] To study the effect of ligands or inhibitors, the compound of interest was added to the assay buffer at the desired concentration. […] Each concentration was repeated three times to calculate standard errors, and the whole experiment was repeated three times to calculate the mean IC50 and standard error.

OAT3 = details: cited from earlier work
OAT2 = details: cited from earlier work
URAT1 = details: cited from earlier work

effect on OAT1 transport [1]: no impact | effect on OAT1 transport ([1]; listed as sodium phosphate): no effect
Compound: O=P(O)(O)O [phosphate, sodium phosphate]

Compound: CCCN(CCC)S(=O)(=O)c1ccc(C(=O)O)cc1 [probenecid]
inhibition of OAT3 (OAT3): inhibitor | inhibition of OAT2 (OAT2): poor inhibitor | inhibition of URAT1 (URAT1): inhibitor

Compound: O=C(O)CCCCCC(=O)O [pimelate]
6-CF transport in presence of dicarboxylate, single experiments ([1]; dicarboxylate 0.5 mM, 8 minutes, n = 8): 18.1607% and 12.7635% and 14.6181% and 17.3198% and 16.4606% and 11.6692%
